Assay results from PubChem BioAssay AID2060508 (Molecular Pharmacology Branch, DTP, NCI, 2025).

Tested on: 454973-116-R2-J3-PDC spheroids, viability, % test/control
Assay: Anticancer human tumor 454973-116-R2-J3-PDC patient-derived pancreatic carcinoma cell line growth inhibition [GQUAD]
Conditions: spheroids with HUVEC and MSC; for IC50: curve of first compound; for viability, T/C: stronger effect = lower value
Outline: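 Viability of tumor cells grown as complex spheroids with endothelial and stromal cells, exposed to drug combinations. Top concentration at or near clinical Cmax (else 10 microM), diluted in half-log increments.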

[1] = second compound 0.0316 µM, first compound 0.0316 µM
[2] = second compound 0.0316 µM, first compound 0.1 µM
[3] = second compound 0.0316 µM, first compound 0.316 µM
[4] = second compound 0.0316 µM, first compound 1 µM
[5] = second compound 0.0316 µM, first compound 3.16 µM
[6] = second compound 0.0316 µM, first compound 10 µM
[7] = second compound 0.1 µM, first compound 0.0316 µM
[8] = second compound 0.1 µM, first compound 0.1 µM
[9] = second compound 0.1 µM, first compound 0.316 µM
[10] = second compound 0.1 µM, first compound 1 µM
[11] = second compound 0.1 µM, first compound 3.16 µM
[12] = second compound 0.1 µM, first compound 10 µM
[13] = second compound 0.316 µM, first compound 0.0316 µM
[14] = second compound 0.316 µM, first compound 0.1 µM
[15] = second compound 0.316 µM, first compound 0.316 µM
[16] = second compound 0.316 µM, first compound 1 µM
[17] = second compound 0.316 µM, first compound 3.16 µM
[18] = second compound 0.316 µM, first compound 10 µM
[19] = second compound 1 µM, first compound 0.0316 µM
[20] = second compound 1 µM, first compound 0.1 µM
[21] = second compound 1 µM, first compound 0.316 µM
[22] = second compound 1 µM, first compound 1 µM
[23] = second compound 1 µM, first compound 3.16 µM
[24] = second compound 1 µM, first compound 10 µM
[25] = second compound 3.16 µM, first compound 0.0316 µM
[26] = second compound 3.16 µM, first compound 0.1 µM
[27] = second compound 3.16 µM, first compound 0.316 µM
[28] = second compound 3.16 µM, first compound 1 µM
[29] = second compound 3.16 µM, first compound 3.16 µM
[30] = second compound 3.16 µM, first compound 10 µM
[31] = second compound 10 µM, first compound 0.0316 µM
[32] = second compound 10 µM, first compound 0.1 µM
[33] = second compound 10 µM, first compound 0.316 µM
[34] = second compound 10 µM, first compound 1 µM
[35] = second compound 10 µM, first compound 3.16 µM
[36] = second compound 10 µM, first compound 10 µM
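Also: spheroids exposed to compounds for seven days.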
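For viability, T/C in this document: 100% = DMSO vehicle control viability.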

CCCS(=O)(=O)Nc1ccc(F)c(C(=O)c2c[nH]c3ncc(-c4ccc(Cl)cc4)cc23)c1F + Cc1cnc(CNC(=O)c2c(=O)c3ccc(N4CCCN(C)CC4)nc3n3c2sc2ccccc23)cn1
IC50 (second compound 0.0316 µM): 6440 nM | IC50 (second compound 0.1 µM): 5990 nM | IC50 (second compound 0.316 µM): 5080 nM | IC50 (second compound 1 µM): 4250 nM | IC50 (second compound 3.16 µM): 5130 nM | IC50 (second compound 10 µM): < 31.6 nM | viability, T/C [1]: 94.2% | viability, T/C [2]: 105% | viability, T/C [3]: 117% | viability, T/C [4]: 106% | viability, T/C [5]: 117% | viability, T/C [6]: 14.1% | viability, T/C [7]: 77.4% | viability, T/C [8]: 88% | viability, T/C [9]: 99% | viability, T/C [10]: 94.6% | viability, T/C [11]: 95.2% | viability, T/C [12]: 17.3% | viability, T/C [13]: 70.7% | viability, T/C [14]: 73.4% | viability, T/C [15]: 79.5% | viability, T/C [16]: 96% | viability, T/C [17]: 70.9% | viability, T/C [18]: 20.2% | viability, T/C [19]: 65.9% | viability, T/C [20]: 71.9% | viability, T/C [21]: 80.2% | viability, T/C [22]: 66.4% | viability, T/C [23]: 60.2% | viability, T/C [24]: 21.9% | viability, T/C [25]: 55.1% | viability, T/C [26]: 62.2% | viability, T/C [27]: 72.3% | viability, T/C [28]: 67.9% | viability, T/C [29]: 68.3% | viability, T/C [30]: 29.2% | viability, T/C [31]: 0.45% | viability, T/C [32]: 18.1% | viability, T/C [33]: 28.6% | viability, T/C [34]: 35.6% | viability, T/C [35]: 0.54% | viability, T/C [36]: 0.2%

Cc1[nH]c2ccccc2c1CCNCc1ccc(/C=C/C(=O)NO)cc1 + Cc1cnc(CNC(=O)c2c(=O)c3ccc(N4CCCN(C)CC4)nc3n3c2sc2ccccc23)cn1
IC50 (second compound 0.0316 µM): 59.6 nM | IC50 (second compound 0.1 µM): 56.9 nM | IC50 (second compound 0.316 µM): 50.5 nM | IC50 (second compound 1 µM): 41.6 nM | IC50 (second compound 3.16 µM): 34.6 nM | IC50 (second compound 10 µM): < 0.999 nM | viability, T/C (second compound 0.0316 µM, first compound 0.000999 µM): 96% | viability, T/C (second compound 0.0316 µM, first compound 0.00316 µM): 97.9% | viability, T/C (second compound 0.0316 µM, first compound 0.00999 µM): 106% | viability, T/C [1]: 76.2% | viability, T/C (second compound 0.0316 µM, first compound 0.0999 µM): 27.9% | viability, T/C [3]: 3.29% | viability, T/C (second compound 0.1 µM, first compound 0.000999 µM): 84.4% | viability, T/C (second compound 0.1 µM, first compound 0.00316 µM): 74.9% | viability, T/C (second compound 0.1 µM, first compound 0.00999 µM): 79.2% | viability, T/C [7]: 69.8% | viability, T/C (second compound 0.1 µM, first compound 0.0999 µM): 31.1% | viability, T/C [9]: 4.46% | viability, T/C (second compound 0.316 µM, first compound 0.000999 µM): 69.7% | viability, T/C (second compound 0.316 µM, first compound 0.00316 µM): 71.8% | viability, T/C (second compound 0.316 µM, first compound 0.00999 µM): 74.2% | viability, T/C [13]: 67.1% | viability, T/C (second compound 0.316 µM, first compound 0.0999 µM): 24.9% | viability, T/C [15]: 2.72% | viability, T/C (second compound 1 µM, first compound 0.000999 µM): 61.3% | viability, T/C (second compound 1 µM, first compound 0.00316 µM): 63.2% | viability, T/C (second compound 1 µM, first compound 0.00999 µM): 61.5% | viability, T/C [19]: 57.1% | viability, T/C (second compound 1 µM, first compound 0.0999 µM): 27.5% | viability, T/C [21]: 0.21% | viability, T/C (second compound 3.16 µM, first compound 0.000999 µM): 56.4% | viability, T/C (second compound 3.16 µM, first compound 0.00316 µM): 64.3% | viability, T/C (second compound 3.16 µM, first compound 0.00999 µM): 59.1% | viability, T/C [25]: 52.4% | viability, T/C (second compound 3.16 µM, first compound 0.0999 µM): 21% | viability, T/C [27]: 0.16% | viability, T/C (second compound 10 µM, first compound 0.000999 µM): 0.26% | viability, T/C (second compound 10 µM, first compound 0.00316 µM): 19.2% | viability, T/C (second compound 10 µM, first compound 0.00999 µM): 43.2% | viability, T/C [31]: 31.6% | viability, T/C (second compound 10 µM, first compound 0.0999 µM): 0.77% | viability, T/C [33]: 0.47%

O=C(NO)c1cnc(N2CCN(S(=O)(=O)c3ccc4ccccc4c3)CC2)nc1 + Cc1cnc(CNC(=O)c2c(=O)c3ccc(N4CCCN(C)CC4)nc3n3c2sc2ccccc23)cn1
IC50 (second compound 0.0316 µM): 198 nM | IC50 (second compound 0.1 µM): 163 nM | IC50 (second compound 0.316 µM): 144 nM | IC50 (second compound 1 µM): 140 nM | IC50 (second compound 3.16 µM): 130 nM | IC50 (second compound 10 µM): < 31.6 nM | viability, T/C [1]: 105% | viability, T/C [2]: 81.9% | viability, T/C [3]: 28.5% | viability, T/C [4]: 1.33% | viability, T/C [5]: 0.09% | viability, T/C [6]: 0.11% | viability, T/C [7]: 87.1% | viability, T/C [8]: 68.6% | viability, T/C [9]: 24.8% | viability, T/C [10]: 1.02% | viability, T/C [11]: 0.59% | viability, T/C [12]: 0.1% | viability, T/C [13]: 67.4% | viability, T/C [14]: 61.9% | viability, T/C [15]: 23.6% | viability, T/C [16]: 0.34% | viability, T/C [17]: 0.11% | viability, T/C [18]: 0.12% | viability, T/C [19]: 59.5% | viability, T/C [20]: 64.1% | viability, T/C [21]: 21.8% | viability, T/C [22]: 0.41% | viability, T/C [23]: 0.09% | viability, T/C [24]: 0.13% | viability, T/C [25]: 67.9% | viability, T/C [26]: 60.9% | viability, T/C [27]: 13.3% | viability, T/C [28]: 0.48% | viability, T/C [29]: 0.95% | viability, T/C [30]: 0.53% | viability, T/C [31]: 0.19% | viability, T/C [32]: 21.1% | viability, T/C [33]: 0.26% | viability, T/C [34]: 0.2% | viability, T/C [35]: 0.19% | viability, T/C [36]: 0.19%
